According to paper PMC5641445 (Journal of medicinal chemistry, 2017):
Where a name gives a salt, the structure may show the parent alone.

Key:
GRK2 = conditions: read-out: GRK2 IC50; Takeda compounds; cited from earlier work
[1] = Abbreviated pharmacokinetic study in mice after IP administration
[2] = Metabolic stability in mouse liver microsomes; assay type: in vitro ADME; conditions: polar carboxamides on the paroxetine template
mouse cardiomyocytes [3] = assay type: cell-based; conditions: at 0.5 μM or 1 μM
[4] = biological target: mouse PKA catalytic subunits (Mus musculus, UniProt P05132); assay: PKA inhibition, ADP-Glo Kinase Assay
bovine GRK5 = bovine GRK5 (Bos taurus, UniProt P43249); assay: GRK5 kinase inhibition; conditions: relative to paroxetine
mouse cardiomyocytes [5] = conditions: cited from earlier work
[6] = female, CD-1, mouse, plasma, ip, 10 mg/kg

Chain of bovine GRK5 (P43249 whole entry): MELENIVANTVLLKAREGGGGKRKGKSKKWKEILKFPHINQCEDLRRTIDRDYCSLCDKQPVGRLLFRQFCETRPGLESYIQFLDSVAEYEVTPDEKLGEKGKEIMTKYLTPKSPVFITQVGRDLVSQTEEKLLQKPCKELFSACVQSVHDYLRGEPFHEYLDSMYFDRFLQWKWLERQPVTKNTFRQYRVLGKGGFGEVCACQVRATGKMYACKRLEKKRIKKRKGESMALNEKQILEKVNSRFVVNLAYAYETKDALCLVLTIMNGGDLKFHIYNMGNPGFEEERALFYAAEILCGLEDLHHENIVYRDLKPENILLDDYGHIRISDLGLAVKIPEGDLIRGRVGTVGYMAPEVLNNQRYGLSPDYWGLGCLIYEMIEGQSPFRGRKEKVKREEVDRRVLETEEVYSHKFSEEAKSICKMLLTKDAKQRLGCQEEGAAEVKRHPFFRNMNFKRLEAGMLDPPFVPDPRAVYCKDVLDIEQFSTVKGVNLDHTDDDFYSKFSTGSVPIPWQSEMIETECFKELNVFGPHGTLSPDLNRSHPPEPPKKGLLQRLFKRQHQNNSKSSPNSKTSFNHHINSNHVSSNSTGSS

Structure (SMILES): Cn1c(CNc2cccc(C(=O)NCc3ccccc3C(F)(F)F)c2)nnc1-c1ccncc1 [compound 2, reference compound]
- IC50 (GRK2): 30 nM
- half-life in vivo ([1]; CD-1 mice, IP 10 mg/kg, estimated from four time points): too low to quantify
- concentration at 30 min [1, 6]: 1830 nM
- concentration at 2 h [1, 6]: 32 nM
- concentration at 4 h [1, 6]: 5 nM
- concentration at 7 h [1, 6]: 6 nM

Structure (SMILES): O=C(NCc1ccccn1)c1cc([C@@H]2CCNC[C@H]2COc2ccc3c(c2)OCO3)ccc1F [14ak, 5-((3S,4R)-3-((benzo[d][1,3]dioxol-5-yloxy)methyl)piperidin-4-yl)-2-fluoro-N-(pyridin-2-ylmethyl)benzamide hydrochloride]
- metabolic stability in MLM, in words [2]: substantial metabolic instability
- increase in contractility, in words (mouse cardiomyocytes [3]): did not show a significant increase in contractility
- IC50 [4]: > 100000 nM
- increase in GRK5 potency (bovine GRK5): 5 fold

Structure (SMILES): COc1cccc(OC)c1CNC(=O)c1cc(C2NC(=O)NC(C)=C2C(=O)Nc2ccc3[nH]ncc3c2)ccc1F (stereo not drawn) [compound 4]
- lower concentration than paroxetine enhancing myocardial contractility (mouse cardiomyocytes [5]): 20 fold

Structure (SMILES): CC1=C(C(=O)Nc2ccc3[nH]ncc3c2)C(c2ccc(F)cc2)NC(=O)N1 (stereo not drawn) [compound 3]
- minimum dose needed to produce a significant contractility response (mouse cardiomyocytes [5]): 1 µM
